Reference: patent publication US10730872B2, “Pesticidally active heterocyclic derivatives with sulphur containing sustitutents” (SYNGENTA PARTICIPATIONS AG, priority 2015, dated 2020)

How the values were obtained:
Assay type in all cases: in vivo
[1] = tested on: Tetranychus urticae; assay: Tetranychus urticae (Two-Spotted Spider Mite): Feeding/Contact Activity; settings: foliar, 192 h, application rate of 200 ppm, sprayed bean leaf discs, mixed population (mobile stages), 8 days after infestation
Method: Bean leaf discs on agar in 24-well microtiter plates were sprayed with aqueous test solutions prepared from 10,000 ppm DMSO stock solutions. After drying the leaf discs were infested with a mite population of mixed ages. The samples were assessed for mortality on mixed population (mobile stages) 8 days after infestation.

[2] = tested on: Myzus persicae; assay: Myzus persicae (Green Peach Aphid). Systemic Activity; settings: 144 h, test rate of 24 ppm, roots of infested pea seedlings in test solution, 6 days
Method: Roots of pea seedlings infested with an aphid population of mixed ages were placed directly into aqueous test solutions prepared from 10,000 DMSO stock solutions. The samples were assessed for mortality 6 days after placing seedlings into test solutions.

[3] = tested on: Bemisia tabaci; assay: Bemisia tabaci (Cotton White Fly): Feeding/Contact Activity; settings: foliar, 144 h, application rate of 200 ppm, sprayed cotton leaf discs, adult white flies, 6 days after incubation
Method: Cotton leaf discs were placed on agar in 24-well microtiter plates and sprayed with aqueous test solutions prepared from 10,000 ppm DMSO stock solutions. After drying the leaf discs were infested with adult white flies. The samples were checked for mortality 6 days after incubation.

[4] = tested on: Spodoptera littoralis; assay: Spodoptera littoralis (Egyptian Cotton Leaf Worm), uptake by lettuce roots from agar; settings: 144 h, test rate of 12.5 ppm, mixed with agar, absorbed by lettuce roots, Spodoptera eggs, 6 days after infestation, read-out: effect in at least one of the three categories (mortality, anti-feeding, or growth inhibition)
Excerpt: Test compounds were applied by pipette from 10,000 ppm DMSO stock solutions into 24-well plates and mixed with agar. Lettuce seeds were placed onto the agar and the multi well plate was closed by another plate which contained also agar. After 7 days the compound was absorbed by the roots and the lettuce grew into the lid plate. The lettuce leaves were then cut off into the lid plate. Spodoptera eggs were pipetted through a plastic stencil onto a humid gel blotting paper and the lid plate was closed with it. The samples were assessed for mortality, anti-feedant effect and growth inhibition in comparison to untreated samples 6 days after infestation.

[5] = tested on: Euschistus heros; assay: Euschistus heros (Neotropical Brown Stink Bug); settings: 120 h, application rate of 200 ppm, sprayed soybean leaves, N2 nymphs, 5 days after infestation, read-out: effect in at least one of the two categories (mortality or growth inhibition)
Method: Soybean leaves on agar in 24-well microtiter plates were sprayed with aqueous test solutions prepared from 10,000 ppm DMSO stock solutions. After drying the leaves were infested with N2 nymphs. The samples were assessed for mortality and growth inhibition in comparison to untreated samples 5 days after infestation.

[6] = tested on: Spodoptera littoralis; assay: Spodoptera littoralis (Egyptian Cotton Leaf Worm), sprayed cotton leaf discs; settings: foliar, 72 h, application rate of 200 ppm, L1 larvae, 3 days after infestation
Summary of the method: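 Cotton leaf discs on agar sprayed with aqueous dilutions of 10,000 ppm DMSO stocks, dried, then infested with five L1 larvae. Mortality, anti-feeding and growth inhibition scored against untreated discs 3 days after infestation. Control recorded when any one category exceeds the untreated sample.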

[7] = tested on: Myzus persicae; assay: Myzus persicae (Green Peach Aphid): Feeding/Contact Activity; settings: foliar, 144 h, application rate of 200 ppm, sprayed sunflower leaf discs, aphid population of mixed ages, 6 days after infestation
Method: Sunflower leaf discs were placed onto agar in a 24-well microtiter plate and sprayed with aqueous test solutions prepared from 10,000 ppm DMSO stock solutions. After drying, the leaf discs were infested with an aphid population of mixed ages. The samples were assessed for mortality 6 days after infestation.

[8] = tested on: Plutella xylostella; assay: Plutella xylostella (Diamond Back Moth); settings: 120 h, application rate of 200 ppm, artificial diet, L2 larvae, 5 days after infestation, read-out: effect in at least one of the two categories (mortality or growth inhibition)
Method: 24-well microtiter plates with artificial diet were treated with aqueous test solutions prepared from 10,000 ppm DMSO stock solutions by pipetting. After drying, the plates were infested with L2 larvae (10 to 15 per well). The samples were assessed for mortality and growth inhibition in comparison to untreated samples 5 days after infestation.

[9] = tested on: Diabrotica balteata; assay: Diabrotica balteata (Corn Root Worm); settings: 96 h, application rate of 200 ppm, sprayed maize sprouts, L2 larvae, 4 days after infestation, read-out: effect in at least one of the two categories (mortality or growth inhibition)
Method: Maize sprouts placed onto an agar layer in 24-well microtiter plates were treated with aqueous test solutions prepared from 10,000 ppm DMSO stock solutions by spraying. After drying, the plates were infested with L2 larvae (6 to 10 per well). The samples were assessed for mortality and growth inhibition in comparison to untreated samples 4 days after infestation.

CCn1c(C(F)(F)F)cc2nc(-c3nc(C(=O)O)ccc3S(=O)(=O)CC)n(C)c2c1=O [Compound A4, 6-[5-ethyl-3-methyl-4-oxo-6-(trifluoromethyl)imidazo[4,5-c]pyridin-2-yl]-5-ethylsulfonyl-pyridine-2-carboxylic acid]
≥ 80%: mortality at 200 ppm [1]

CCn1c(C(F)(F)F)cc2nc(-c3ncc(N(C)C(=O)C4CC4)cc3S(=O)(=O)CC)n(C)c2c1=O [Compound A9, N-[6-[5-ethyl-3-methyl-4-oxo-6-(trifluoromethyl)imidazo[4,5-c]pyridin-2-yl]-5-ethylsulfonyl-3-pyridyl]-N-methyl-cyclopropanecarboxamide]
≥ 80%: mortality at 24 ppm [2] | mortality at 200 ppm [3] | percent effect (mortality, anti-feeding or growth inhibition) at 12.5 ppm [4] | percent effect (mortality or growth inhibition) at 200 ppm [5] | percent control (mortality, anti-feeding effect or growth inhibition) at 200 ppm [6] | mortality at 200 ppm [7] | percent effect (mortality or growth inhibition) at 200 ppm [8]

CCn1c(C(F)(F)F)cc2nc(-c3ncc(N(C)S(C)(=O)=O)cc3S(=O)(=O)CC)n(C)c2c1=O [Compound A13, N-[6-[5-ethyl-3-methyl-4-oxo-6-(trifluoromethyl)imidazo[4,5-c]pyridin-2-yl]-5-ethylsulfonyl-3-pyridyl]-N-methyl-methanesulfonamide]
≥ 80%: mortality at 200 ppm [1] | percent effect (mortality or growth inhibition) at 200 ppm [5] | percent control (mortality, anti-feeding effect or growth inhibition) at 200 ppm [6] | mortality at 200 ppm [7] | percent effect (mortality or growth inhibition) at 200 ppm [8]

CCn1c(C(F)(F)F)cc2nc(-c3ncc(C(=O)NC4CC4)cc3S(=O)(=O)CC)n(C)c2c1=O [Compound A19, N-cyclopropyl-6-[5-ethyl-3-methyl-4-oxo-6-(trifluoromethyl)imidazo[4,5-c]pyridin-2-yl]-5-ethylsulfonyl-pyridine-3-carboxamide]
≥ 80%: mortality at 24 ppm [2] | mortality at 200 ppm [1] | percent effect (mortality or growth inhibition) at 200 ppm [5] | percent effect (mortality or growth inhibition) at 200 ppm [8]

CCn1c(C(F)(F)F)cc2nc(-c3nc(C(=O)NC4CC4)ccc3S(=O)(=O)CC)n(C)c2c1=O [Compound A20, N-cyclopropyl-6-[5-ethyl-3-methyl-4-oxo-6-(trifluoromethyl)imidazo[4,5-c]pyridin-2-yl]-5-ethylsulfonyl-pyridine-2-carboxamide]
≥ 80%: mortality at 24 ppm [2] | mortality at 200 ppm [3] | percent effect (mortality, anti-feeding or growth inhibition) at 12.5 ppm [4] | percent effect (mortality or growth inhibition) at 200 ppm [5] | percent control (mortality, anti-feeding effect or growth inhibition) at 200 ppm [6] | mortality at 200 ppm [7] | percent effect (mortality or growth inhibition) at 200 ppm [8]

CCn1c(C(F)(F)F)cc2nc(-c3ncc(NC4(C#N)CC4)cc3S(=O)(=O)CC)n(C)c2c1=O [Compound A24, 1-[[6-[5-ethyl-3-methyl-4-oxo-6-(trifluoromethyl)imidazo[4,5-c]pyridin-2-yl]-5-ethylsulfonyl-3-pyridyl]amino]cyclopropanecarbonitrile]
≥ 80%: effect mortality or growth inhibition at 200 ppm [9] | mortality at 200 ppm [1] | percent effect (mortality or growth inhibition) at 200 ppm [5] | percent control (mortality, anti-feeding effect or growth inhibition) at 200 ppm [6] | percent effect (mortality or growth inhibition) at 200 ppm [8]

CCn1c(C(F)(F)F)cc2nc(-c3nc(N(CC(F)(F)F)C(=O)C4CC4)ccc3S(=O)(=O)CC)n(C)c2c1=O [Compound A32, N-[6-[5-ethyl-3-methyl-4-oxo-6-(trifluoromethyl)imidazo[4,5-c]pyridin-2-yl]-5-ethylsulfonyl-2-pyridyl]-N-(2,2,2-trifluoroethyl)cyclopropanecarboxamide]
≥ 80%: effect mortality or growth inhibition at 200 ppm [9] | mortality at 200 ppm [1] | percent control (mortality, anti-feeding effect or growth inhibition) at 200 ppm [6] | percent effect (mortality or growth inhibition) at 200 ppm [8]

CCn1c(C(F)(F)F)cc2nc(-c3nc(NCC(F)(F)F)ccc3S(=O)(=O)CC)n(C)c2c1=O [Compound A34, 5-ethyl-2-[3-ethylsulfonyl-6-(2,2,2-trifluoroethylamino)-2-pyridyl]-3-methyl-6-(trifluoromethyl)imidazo[4,5-c]pyridin-4-one]
≥ 80%: effect mortality or growth inhibition at 200 ppm [9] | mortality at 200 ppm [1] | percent control (mortality, anti-feeding effect or growth inhibition) at 200 ppm [6] | percent effect (mortality or growth inhibition) at 200 ppm [8]

CCS(=O)(=O)c1ccc(NC)nc1-c1nc2cc(C(F)(F)F)n(C3CC3)c(=O)c2n1C [Compound A51, 5-cyclopropyl-2-[3-ethylsulfonyl-6-(methylamino)-2-pyridyl]-3-methyl-6-(trifluoromethyl)imidazo[4,5-c]pyridin-4-one]
≥ 80%: effect mortality or growth inhibition at 200 ppm [9] | mortality at 24 ppm [2] | mortality at 200 ppm [3] | percent effect (mortality, anti-feeding or growth inhibition) at 12.5 ppm [4] | percent effect (mortality or growth inhibition) at 200 ppm [5] | percent control (mortality, anti-feeding effect or growth inhibition) at 200 ppm [6] | mortality at 200 ppm [7] | percent effect (mortality or growth inhibition) at 200 ppm [8]

CCn1c(C(F)(F)F)cc2nc(-c3ncc(NC(=O)OC(C)(C)C)cc3S(=O)(=O)CC)n(C)c2c1=O [Compound A64, tert-butyl N-[6-[5-ethyl-3-methyl-4-oxo-6-(trifluoromethyl)imidazo[4,5-c]pyridin-2-yl]-5-ethylsulfonyl-3-pyridyl]carbamate]
≥ 80%: mortality at 200 ppm [1] | mortality at 200 ppm [3] | percent effect (mortality or growth inhibition) at 200 ppm [5] | percent control (mortality, anti-feeding effect or growth inhibition) at 200 ppm [6] | percent effect (mortality or growth inhibition) at 200 ppm [8]

CCn1c(C(F)(F)F)cc2nc(-c3nc(NC(=O)OC(C)(C)C)ccc3S(=O)(=O)CC)n(C)c2c1=O [Compound A66, tert-butyl N-[6-[5-ethyl-3-methyl-4-oxo-6-(trifluoromethyl)imidazo[4,5-c]pyridin-2-yl]-5-ethylsulfonyl-2-pyridyl]carbamate]
≥ 80%: effect mortality or growth inhibition at 200 ppm [9] | mortality at 200 ppm [1] | mortality at 200 ppm [3] | percent effect (mortality, anti-feeding or growth inhibition) at 12.5 ppm [4] | percent control (mortality, anti-feeding effect or growth inhibition) at 200 ppm [6] | percent effect (mortality or growth inhibition) at 200 ppm [8]

CCn1c(C(F)(F)F)cc2nc(-c3nc(N)c(C4CC4)cc3S(=O)(=O)CC)n(C)c2c1=O [Compound A71]
≥ 80%: effect mortality or growth inhibition at 200 ppm [9] | mortality at 24 ppm [2] | mortality at 200 ppm [1] | mortality at 200 ppm [3] | percent effect (mortality or growth inhibition) at 200 ppm [5] | percent control (mortality, anti-feeding effect or growth inhibition) at 200 ppm [6] | mortality at 200 ppm [7] | percent effect (mortality or growth inhibition) at 200 ppm [8]
